Results on six compounds are retold here after patent publication US6753424B1, “Conjugates of DNA interacting groups with steroid hormones for use as nucleic acid transfection agents” (priority 1998, dated 2004).

Data set [1] is described as follows: Stability of C-21 ester versus C-21 urethane derivatives (TLC analysis). In kind it is in vitro ADME. As to conditions: pH 5, pH 9, proteinase K (pH 7.8, 50 μg/ml), dispase (2.4 U/ml), cellular extracts, DMEM/10% FCS. The protocol: b) water buffered to pH 9;
c) water buffered to pH 5;
e) proteinase K (pH 7.8; 50 μg/ml);
After 15 hours of incubation each sample is separately extracted with 400 μl Ethyl acetate, evaporated under N2-flow, redissolved in 20 μl Ethyl acetate and analysed by TLC analysis: stationary phase: Alugram SIL G-25 UV254 (Macherey Nagel AG); mobile phase: Ethyl acetate-MeOH-Acetone (3-1-3).

The test system of data set [2] is 3Y1 cells. Briefly: Transfection enhancement, CMV-LacZ reporter, CaPO4 transfection of 3Y1 cells. In kind it is cell-based, rat. As to conditions: 5 μg reporter, 3Y1. The protocol:
Conditions: 3Y1 cells are transfected with an expression vector that is constitutively expressing the reporter gene LacZ (CMV-LacZ). Transfection conditions are identical throughout the various samples (total 10-12 μq DNA for 4 cm dishes). In some samples the DNA used for the transfection cocktail is pre-incubated with various conjugates at the given concentrations. The concentrations are calculated to give from 10−8 to 10−6 M after dispersing the CaPO4 precipitate in the recipient dish (5 ml volume). Transfection is performed O/N and after rinsing of the precipitate the cells are further incubated for 24 hours. LacZ levels are determined from cell extracts with a chemiluminescence LacZ enzyme assay (Galactolight plus. Tropix). The relative luminescence from each extract is given in RLU/mg*1000.
Cell culture. Cells are cultivated in DMEM supplemented with serum and antibiotica according to standard conditions (typically 10% FCS and Pen/Strep as antibiotica). At the day of transfection, cells are trypsinized and seeded at around 25-30% confluency. Cells are allowed to adhere to dish for 4-6 hours prior to transfection.
DNA pre-incubation (example for conditions that give5×10 exp (−6) Molar final concentration of the CL-C4-EtBr conjugate):
5 microgram of CMV-LacZ DNA (in 10 microliter TE) are mixed with 10 nmoles of hormone derivative (10 microliters stock solution) and incubated for 10 min at room temperature (final volume: 20 ul). The DNA/cortisol-C4-ethidum mix is then supplemented with 7 micrograms sheared calf thymus carrier DNA (in 14 microliters TE) and bidistilled water to give a final volume of 125 microliters.
Transfection by CaPO4: to each transfection sample (125 microliter volume DNA+water). 125 microliters of Ca ++ mix are added, and the mix is incubated for 5-10 min at room temperature. Each sample is then supplemented with 250 microliter of Pi-mix (with simultaneous mixing by up-down pipetting) and is further incubated 10 minutes at room temperature after which the cocktail is poured on top of the medium (5 ml) of each cell culture dish (4 cm diameter). The optimal time of incubation after Pi-mix addition is pre-determined by prior evaluation (size of the precipitate) of parallel samples. The precipitate is allowed to deposit onto the cells for 15 hours (incubation of 37 degrees, 5% CO2). The cells are then rinsed twice with Tris-buffered Saline, supplemented with fresh medium and further incubated under standard conditions. To analyze LacZ reporter gene function, the cells are either fixed or harvested 24 hours after precipitate removal.
Variation of parameters: samples in which the C1-C4-EtBr conjugates (or control compounds) are used at different concentrations, are similarly treated, except that the concentration of the stock solution in ethanol is correspondingly varied.

In data set [3] the test system is CV-1 cells reconstituted with exogenous GR. Put plainly: Transfection enhancement, CMV-LacZ reporter, CV-1 cells reconstituted with exogenous GR. Type of data set: cell-based, monkey. The protocol: Conditions: CV-1 cells are first infected with an adenovirus system allowing expression of GR in >90% of the cells (S. B. Verca, unpublished). After 24 hours the cells are; transfected with an expression vector that is constitutively expressing the reporter gene LacZ (CMV-LacZ). Transfection conditions and analysis of LacZ reporter are the same as described in Example 7 legend. Transfection is performed O/N and after rinsing of the precipitate the cells are further incubated for 24 hours. LacZ levels are determined from cell extracts with a chemiluminescence LacZ enzyme assay (Galactolight plus, Tropix). The relative luminescence from each extract is given. Each value represents an individual extract. “Induction”: relative reporter gene activity (values divided by value of assay in lane 9, true negative control for liganding), rel/RLU=(RLU:protein)×1000, net=rel/RLU−600 (600=rel/RLU value approximately corresponding to rel/RLU value of mock transfection).

The test system of data set [4] is HUH-7 cells. Put plainly: Transfection enhancement, CMV-LacZ reporter, HUH-7 cells. Details: key to net: net = (RLU:protein)×1000 − 600 (mock transfection level). Type of data set: cell-based, human. The protocol:
Conditions: HUH-7 cells are human hepatoma cells that contain substantial amounts of glucocorticoid receptor. The cells are transfected with an expression vector that is constitutively expressing the reporter gene LacZ (CMV-LacZ). Transfection conditions and analysis of LacZ reporter are the same as described in Example 7 legend. Transfection is performed O/N and after rinsing of the precipitate the cells are further incubated for 24 hours. LacZ levels are determined from cell extracts with a chemiluminescence LacZ enzyme assay (Galactolight plus, Tropix). The relative luminescence from each extract is given. Each value represents an individual extract. “Induction”: relative reporter gene activity (values divided by value of assay in lane 9, true negative control for DNA liganding). rel/RLU=(RLU:protein)×1000; net=rel/RLU−600 (600=rel/RLU value approximately corresponding to rel/RLU value of mock transfection).

Data set [5] deals with GR-GFP chimera. Briefly: Nuclear Transfer Induction assay (NTI), monourethane ligands, HeLa cells. Type of data set: cell-based. Particulars: 1 hr. The protocol: Conditions: HeLa cells are transiently transfected by CaPO4 with an expression vector encoding a GR-GFP chimera (5 μg in transfection cocktail, 4 cm diameter dishes, DMEM with 3% FCS). After 24 hour expression, ligand is added for 1 hr and cells are fixed with formaldehyde (5 min 4° C.) and inspected by fluorescence microscopy. Fluorescent cells are counted and divided into different classes according to ‘cytoplasmic’ (C) versus ‘nuclear’ (N) localisation of fluorescence.
First column: “Conditions”: Name of compounds added (marked at top: ‘//ligand’), and their concentration (in parentheses) and assay number (01 through 21).
Values are given as percentage of cells displaying the corresponding localisatidn, within each tested condition the sum is 100%.

Data set [6] concerns GR-GFP chimera. Briefly: Nuclear Transfer Induction assay (NTI), diurethane ligands, CV-1 cells. Type of data set: cell-based. As to conditions: 4 hr. The protocol:
Conditions: CV-1 cells are transiently transfected with DOTAP (Boehringer-Mannheim) with an expression vector encoding a GR-GFP chimera (see 8.1). After 36 hours expression, ligand is added for 4 hr and cells are fixed and counted as given in 8.1.

For `Cc1oc2c(C)c3oc(=O)cc(C)c3cc2c1CNC(=O)OCCOCCNC(=O)OCCOCCNC(=O)OCC(=O)[C@@]1(O)[C@H](C)CC2C3CCC4=CC(=O)C=CC4(C)[C@@]3(F)C(O)CC21C` (stereo partly shown) [DEX-O-O-PSO], the “stability of urethane bond between steroid moiety, spacer and DNA binder” value (“stability” below) in data set [1] is “stable”.

With `CC[n+]1c(-c2ccccc2)c2cc(N)ccc2c2ccc(N)cc21` [EtBr, Ethidium Bromide, reference compound], the “light units (relative luminescence, LacZ)” value in data set [2] (ligand 10^-6M) is reported as 2250 RLU/mg*1000. For the same compound, in data set [2] (ligand 10^-7M), the “light units (relative luminescence, LacZ)” value is given as 2500 RLU/mg*1000. The “light units (relative luminescence, LacZ)” value in data set [2] (ligand 10^-8M) is 2750 RLU/mg*1000. Moreover, in data set [3] (ligand 10-6, CV-1 with GR), the RLU was 851; the “induction (relative reporter gene activity, divided by value of lane 9)” value amounted to 0.77; the “net = rel/RLU−600” value was found to be 626.2; the “rel/RLU = (RLU:protein)×1000” value was 1226.2. Besides, in data set [3] (ligand 10-7, CV-1 with GR), the RLU is recorded as 1632; the “induction (relative reporter gene activity, divided by value of lane 9)” value is reported as 2.01; the “net = rel/RLU−600” value worked out at 1626; the “rel/RLU = (RLU:protein)×1000” value came to 2226.5. Further, in data set [4] (ligand 10-6, HUH-7), the RLU is given as 168920; the “induction (relative reporter gene activity, divided by value of lane 9)” value was 1.49; the net was 103; the rel/RLU was determined as 233.3.

As for `COC(=O)CCNC(=O)OCC(=O)[C@@]1(O)CCC2C3CCC4=CC(=O)CCC4(C)C3C(O)CC21C` (stereo partly shown) [CL-C4], the “light units (relative luminescence, LacZ)” value is 3750 RLU/mg*1000 in data set [2] (ligand 10^-6M), 1625 RLU/mg*1000 in data set [2] (ligand 10^-7M) and 2500 RLU/mg*1000 in data set [2] (ligand 10^-8M).

Turning to `Cc1oc2c(C)c3oc(=O)cc(C)c3cc2c1CNC(=O)CCNC(=O)OCC(=O)[C@@]1(O)[C@H](C)CC2C3CCC4=CC(=O)C=CC4(C)[C@@]3(F)C(O)CC21C` (stereo partly shown) [DEX-C4-Pso], in data set [5] (ligand 1.10-6M), the “C < N, percentage of cells” value amounted to 15%; the “C << N, percentage of cells” value was found to be 5%; the “C = N, percentage of cells” value turned out to be 60%; the “C > N, percentage of cells” value turned out to be 20%. Moreover, in data set [5] (ligand 1.10-6M), the “C >> N, percentage of cells” value was 0%. In data set [5] (ligand 1.10-7M), the “C < N, percentage of cells” value came to 5%; the “C << N, percentage of cells” value was 0%; the “C = N, percentage of cells” value is reported as 40%; the “C > N, percentage of cells” value was 35%. Besides, in data set [5] (ligand 1.10-7M), the “C >> N, percentage of cells” value amounted to 20%. Also, the “stability” value in data set [1] is “stable”.

With `C[C@@H]1C[C@H]2[C@@H]3CCC4=CC(=O)C=C[C@]4(C)[C@@]3(F)[C@@H](O)C[C@]2(C)[C@@]1(O)C(=O)CO` [DEX, Dexamethasone, reference compound], in data set [6] (ligand 5.10-6M), the “C < N, percentage of cells” value amounted to 0.5%; the “C << N, percentage of cells” value turned out to be 99.5%; the “C = N, percentage of cells” value turned out to be 0%; the “C > N, percentage of cells” value is on record as 0%. Also, the “C >> N, percentage of cells” value in data set [6] (ligand 5.10-6M) came to 0%. Further, in data set [6] (ligand 5.10-7M), the “C < N, percentage of cells” value was 1%; the “C << N, percentage of cells” value came out at 99%; the “C = N, percentage of cells” value came out at 0%; the “C > N, percentage of cells” value was found to be 0%. Also, the “C >> N, percentage of cells” value in data set [6] (ligand 5.10-7M) was found to be 0%. Also, in data set [6] (ligand 5.10-8M), the “C < N, percentage of cells” value was found to be 5%; the “C << N, percentage of cells” value worked out at 95%; the “C = N, percentage of cells” value is 0%; the “C > N, percentage of cells” value came out at 0%. Besides, the “C >> N, percentage of cells” value in data set [6] (ligand 5.10-8M) came to 0%. Further, in data set [6] (ligand 5.10-9M), the “C < N, percentage of cells” value worked out at 42.1%; the “C << N, percentage of cells” value was 57.5%; the “C = N, percentage of cells” value was 0.3%; the “C > N, percentage of cells” value came to 0%. In data set [6] (ligand 5.10-9M), the “C >> N, percentage of cells” value came to 0%. For the same compound, in data set [5] (ligand 1.10-6M), the “C < N, percentage of cells” value came to 29%; the “C << N, percentage of cells” value was determined as 71%; the “C = N, percentage of cells” value is on record as 0%; the “C > N, percentage of cells” value was found to be 0%. In addition, in data set [5] (ligand 1.10-6M), the “C >> N, percentage of cells” value worked out at 0%. In data set [5] (ligand 1.10-7M), the “C < N, percentage of cells” value worked out at 30%; the “C << N, percentage of cells” value worked out at 67%; the “C = N, percentage of cells” value amounted to 3%; the “C > N, percentage of cells” value is 0%. The “C >> N, percentage of cells” value in data set [5] (ligand 1.10-7M) is recorded as 0%. In addition, in data set [4] (ligand 10-6, HUH-7), the RLU is reported as 238837, the net is 185 and the rel/RLU worked out at 314.7. In data set [4] (ligand 10-7, HUH-7), the net was 227 and the rel/RLU was 357.3.

For `Cc1oc2c(C)c3oc(=O)cc(C)c3cc2c1CNC(=O)CCCCCCCCCCNC(=O)OCC(=O)[C@@]1(O)CCC2C3CCC4=CC(=O)CCC4(C)C3C(O)CC21C` (stereo partly shown) [CL-C12-Pso], in data set [5] (ligand 1.10-6M), the “C < N, percentage of cells” value is reported as 53%; the “C << N, percentage of cells” value is 22%; the “C = N, percentage of cells” value is on record as 25%; the “C > N, percentage of cells” value stood at 0%. Besides, the “C >> N, percentage of cells” value in data set [5] (ligand 1.10-6M) worked out at 0%. For the same compound, in data set [5] (ligand 1.10-7M), the “C < N, percentage of cells” value turned out to be 3%; the “C << N, percentage of cells” value is recorded as 0%; the “C = N, percentage of cells” value was 52%; the “C > N, percentage of cells” value is 40%. In data set [5] (ligand 1.10-7M), the “C >> N, percentage of cells” value is listed as 5%. For the same compound, the “stability” value in data set [1] is “stable”.
